Values of other authors in PubChem BioAssay AID1259409 (Chemical Carcinogenesis Research Information System (CCRIS), 2018).

Test system: rodent chemically induced tumor inhibition, incidence and multiplicity
Test: CCRIS tumor inhibitor studies
Details: Species: RAT, Strain/Sex: WISTAR/MALE, Promoter: NONE USED

CN(C)C(=O)Oc1cccc([N+](C)(C)C)c1
tumour outcome (control, treated, inhibition, significance) (Carcinogen: AZOXYMETHANE, 25843-45-2, Dose [Inhibitor]: 0.1 MG/KG BW 1/2D IN DEPOT FORM BEGINNING 3 WK PRIOR TO FIRST CARCINOGEN DOSE (STUDY DURATION: 40 WK), Route [Inhibitor]: SUBCUTANEOUS, Target Tissue: Type of Lesion: COLON: TUMOR, Dose [Carcinogen]: 7.4 MG/KG BW IN 0.9% SALINE SOLUTION 1/WK FOR 10 WK): 18/20 (90%), 9/19 (47%), 47%, p<0.02
tumour outcome (control, treated, inhibition, significance) (Carcinogen: N-METHYL-N'-NITRO-N-NITROSOGUANIDINE, 70-25-7, Dose [Inhibitor]: 0, 0.075 MG/KG 1/2 D BEGINNING POST CARCINOGEN TREATMENT (STUDY DURATION: 52 WK), Route [Inhibitor]: SUBCUTANEOUS, Target Tissue: Type of Lesion: STOMACH: ADENOCARCINOMA, Dose [Carcinogen]: 75 UG/ML IN DRINKING WATER FOR 25 WK): 16/20 (80%), 7/18 (39%), 51%, p<0.05
tumour outcome (control, treated, inhibition, significance) (Carcinogen: N-METHYL-N'-NITRO-N-NITROSOGUANIDINE, 70-25-7, Dose [Inhibitor]: 0, 0.1 MG/KG IN OLIVE OIL SUSPENSION 1/D BEGINNING 1 WK POST LAST CARCINOGEN DOSE AND CONTINUING FOR DURATION OF STUDY (, Target Tissue: Type of Lesion: GLANDULAR STOMACH: ADENOCARCINOMA, Dose [Carcinogen]: 50 UG/ML IN DRINKING WATER FOR 25 WK): 15/18 (83%), 7/19 (37%), 55%, p<0.02
